Measured values published in ChEMBL document CHEMBL1147945, “R-isomers of Arg-Gly-Asp (RGD) mimics as potent alphavbeta3 inhibitors” (Bioorg Med Chem, 2007).
Calls of active or inactive are those of the source. The calls are words filed in the database; no cut-off is given here.

Experiments:
M21 [1] = assay: Inhibition of tumor growth in twice daily ip dosed SCID mouse implanted with human M21 cells after 28 days; type: functional, organism-based
M21 [2] = assay: Decrease in tumor volume in SCID mouse implanted with human M21 cells at 100 mg/kg, ip twice daily after 28 days relative to control; type: functional; design: scale not given: the % may be the effect or the level left; conditions: route intraperitoneal
[3] = Half life in mouse at 20 mg/kg po or 10 mg/kg iv; type: ADME, organism-based; conditions: in vivo
Integrin alpha-V/beta-6 = Integrin alpha-V/beta-6 (Homo sapiens, UniProt P06756+P18564); assay: Inhibition of alpha-V-beta-6 integrin receptor in human HT29 cells; type: cell-based, HT-29
Sequence of Integrin alpha-V/beta-6 (P06756 31-889 limits assumed): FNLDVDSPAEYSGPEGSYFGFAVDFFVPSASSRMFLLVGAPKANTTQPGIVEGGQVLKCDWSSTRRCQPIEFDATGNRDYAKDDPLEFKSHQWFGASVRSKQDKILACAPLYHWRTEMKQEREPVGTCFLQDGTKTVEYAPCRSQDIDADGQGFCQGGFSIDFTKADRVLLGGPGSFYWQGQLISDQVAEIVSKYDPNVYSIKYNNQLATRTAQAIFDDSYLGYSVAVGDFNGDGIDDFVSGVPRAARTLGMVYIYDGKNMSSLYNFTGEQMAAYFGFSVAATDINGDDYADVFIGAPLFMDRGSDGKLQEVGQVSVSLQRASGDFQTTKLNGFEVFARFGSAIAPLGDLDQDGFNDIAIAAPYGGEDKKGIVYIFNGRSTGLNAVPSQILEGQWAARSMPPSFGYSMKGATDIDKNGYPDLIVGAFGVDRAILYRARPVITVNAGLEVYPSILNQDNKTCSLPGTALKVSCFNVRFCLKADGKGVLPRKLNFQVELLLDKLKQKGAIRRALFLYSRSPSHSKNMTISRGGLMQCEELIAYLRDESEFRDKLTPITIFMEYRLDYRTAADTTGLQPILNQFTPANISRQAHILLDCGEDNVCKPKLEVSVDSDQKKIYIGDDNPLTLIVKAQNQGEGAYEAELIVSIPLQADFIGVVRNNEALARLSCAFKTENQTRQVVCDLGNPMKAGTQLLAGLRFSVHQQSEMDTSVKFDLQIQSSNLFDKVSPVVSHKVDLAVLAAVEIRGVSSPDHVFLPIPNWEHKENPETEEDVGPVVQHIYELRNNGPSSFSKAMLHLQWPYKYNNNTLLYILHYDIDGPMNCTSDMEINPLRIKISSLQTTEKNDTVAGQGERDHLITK
Sequence of Integrin alpha-V/beta-6 (P06756 891-1048 limits assumed): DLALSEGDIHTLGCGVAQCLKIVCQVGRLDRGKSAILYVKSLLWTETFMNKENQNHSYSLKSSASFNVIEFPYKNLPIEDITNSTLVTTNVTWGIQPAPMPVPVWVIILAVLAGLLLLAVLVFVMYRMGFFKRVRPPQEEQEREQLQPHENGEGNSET
Sequence of Integrin alpha-V/beta-6 (P18564 22-788 limits assumed): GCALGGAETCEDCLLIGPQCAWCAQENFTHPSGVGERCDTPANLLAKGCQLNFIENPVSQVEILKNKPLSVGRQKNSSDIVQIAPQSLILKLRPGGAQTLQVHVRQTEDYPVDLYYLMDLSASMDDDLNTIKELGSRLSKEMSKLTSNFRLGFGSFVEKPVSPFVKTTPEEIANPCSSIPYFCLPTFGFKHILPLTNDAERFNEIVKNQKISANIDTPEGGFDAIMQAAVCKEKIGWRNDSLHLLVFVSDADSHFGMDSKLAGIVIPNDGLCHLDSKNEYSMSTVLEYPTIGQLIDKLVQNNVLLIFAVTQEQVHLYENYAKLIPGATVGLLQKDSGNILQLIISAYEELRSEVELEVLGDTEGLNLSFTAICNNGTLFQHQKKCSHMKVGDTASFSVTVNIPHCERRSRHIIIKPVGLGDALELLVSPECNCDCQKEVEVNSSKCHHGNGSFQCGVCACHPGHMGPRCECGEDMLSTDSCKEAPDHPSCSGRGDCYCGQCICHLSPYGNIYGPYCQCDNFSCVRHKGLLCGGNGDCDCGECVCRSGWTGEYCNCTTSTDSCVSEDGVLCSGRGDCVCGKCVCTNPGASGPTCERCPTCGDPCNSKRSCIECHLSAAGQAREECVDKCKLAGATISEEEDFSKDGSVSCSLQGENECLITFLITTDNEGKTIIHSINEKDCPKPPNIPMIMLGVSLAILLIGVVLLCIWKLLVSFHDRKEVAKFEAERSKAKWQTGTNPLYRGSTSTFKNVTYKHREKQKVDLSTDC

[4] = Drug level in BALB/c mouse plasma after 6 hrs at 10 mg/kg, ip; type: ADME, organism-based; design: dose 10 mg/kg, route intraperitoneal; conditions: read-out: Drug uptake
Colon 26 [5] = assay: Decrease in tumor weight in BALB/c mouse implanted with colon 26 tumor cells at 100 mg/kg, ip twice daily after 21 days relative to control; type: functional; design: scale not given: the % may be the effect or the level left; conditions: route intraperitoneal
[6] = Bioavailability in mouse at 20 mg/kg, po; type: ADME, organism-based; conditions: in vivo
[7] = Drug level in BALB/c mouse plasma after 6 hrs at 1 mg/kg, ip; type: ADME, organism-based; design: dose 1 mg/kg, route intraperitoneal; conditions: read-out: Drug uptake
Mus musculus = assay: Decrease in colon 26 tumor-induced hypercalcemia in BALB/c mouse at 100 mg/kg, ip twice daily; type: functional; design: scale not given: the % may be the effect or the level left; conditions: route intraperitoneal
M21 [8] = assay: Decrease in tumor weight in SCID mouse implanted with human M21 cells at 100 mg/kg, ip twice daily after 28 days relative to control; type: functional; design: scale not given: the % may be the effect or the level left; conditions: route intraperitoneal
Colon 26 [9] = assay: Inhibition of tumor growth in twice daily ip dosed BALB/c mouse implanted with mouse colon 26 tumor cells after 21 days; type: functional, organism-based
[10] = Drug level in BALB/c mouse plasma after 6 hrs at 100 mg/kg, ip; type: ADME, organism-based; design: dose 100 mg/kg, route intraperitoneal; conditions: read-out: Drug uptake
Colon 26 [11] = assay: Decrease in tumor volume in BALB/c mouse implanted with mouse colon 26 tumor cells at 100 mg/kg, ip twice daily after 21 days relative to control; type: functional; design: scale not given: the % may be the effect or the level left; conditions: route intraperitoneal
Integrin alpha-V/beta-3 = Integrin alpha-V/beta-3 (Homo sapiens, UniProt P05106+P06756); assay: Inhibition of alphaVbeta3 integrin receptor expressed in human 293 cells; type: cell-based, HEK293
Sequence of Integrin alpha-V/beta-3 (P05106 27-788 limits assumed): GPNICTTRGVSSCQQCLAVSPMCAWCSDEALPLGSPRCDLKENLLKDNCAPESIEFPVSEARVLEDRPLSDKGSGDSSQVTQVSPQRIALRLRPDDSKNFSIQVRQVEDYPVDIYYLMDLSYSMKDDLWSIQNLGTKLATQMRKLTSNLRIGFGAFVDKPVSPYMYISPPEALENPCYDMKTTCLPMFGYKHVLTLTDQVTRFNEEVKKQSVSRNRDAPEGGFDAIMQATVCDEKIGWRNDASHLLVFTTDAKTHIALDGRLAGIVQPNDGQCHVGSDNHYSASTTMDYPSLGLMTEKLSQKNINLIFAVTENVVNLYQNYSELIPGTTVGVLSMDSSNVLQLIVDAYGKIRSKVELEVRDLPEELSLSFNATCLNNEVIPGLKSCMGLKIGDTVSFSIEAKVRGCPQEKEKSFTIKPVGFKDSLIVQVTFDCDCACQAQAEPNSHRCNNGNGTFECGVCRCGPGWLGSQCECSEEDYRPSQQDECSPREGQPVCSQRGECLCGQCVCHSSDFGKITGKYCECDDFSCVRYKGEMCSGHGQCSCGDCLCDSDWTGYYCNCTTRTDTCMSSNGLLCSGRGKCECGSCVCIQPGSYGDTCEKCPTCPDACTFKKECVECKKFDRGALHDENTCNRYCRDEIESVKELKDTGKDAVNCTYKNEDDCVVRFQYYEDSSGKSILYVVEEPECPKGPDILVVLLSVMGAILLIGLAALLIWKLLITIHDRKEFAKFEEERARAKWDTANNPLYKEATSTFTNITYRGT
Sequence of Integrin alpha-V/beta-3 (P06756 31-889 limits assumed): as the sequence (P06756 31-889 limits assumed) above
Sequence of Integrin alpha-V/beta-3 (P06756 891-1048 limits assumed): as the sequence (P06756 891-1048 limits assumed) above

## O=C(O)C[C@@H](NC(=O)CNC(=O)c1cc(O)cc(NC2=NCC(F)CN2)c1)c1cc(Cl)cc(Br)c1O (some centres undefined)
M21 [1]
  Activity: Dose-dependent effect
M21 [2]
  Activity: 62%
[3]
  half-life: 2 h
Integrin alpha-V/beta-6
  IC50: 366 nM
[4]
  concentration at 6 h: 19400 ng/mL
Colon 26 [5]
  Activity: 55%
[6]
  bioavailability: 5.9%
[7]
  concentration at 6 h: 3300 ng/mL
Mus musculus
  Activity: 64%
M21 [8]
  Activity: 53%
Colon 26 [9]
  Activity: Active
[10]
  concentration at 6 h: 84400 ng/mL
Colon 26 [11]
  Activity: 60%
Integrin alpha-V/beta-3
  IC50: 1 nM
